The subject of assay [1] is Human Umbilical Vein Endothelial Cells (HUVEC). Particulars: 500 ng of compound, 40 minutes. Here is the method:
HUVEC (CC-2517, obtained from Clonetics, Walkersville, Md.) were grown on tissue culture flasks in Endothelial cell medium (EGM-2 Bulletkit, CC 3162, Clonetics). Mid-confluent cultures were harvested using Trypsine/EDTA solution (CC-5012, Clonetics). The cells were rinsed twice with PBS containing 2% BSA and kept on ice. Samples of 10^6 cells were tested for binding.
The reactions were incubated at room temperature for 40 minutes and then 400 μl of TBS-BSA were added and cells were collected by centrifugation at 3000×g for 3 minutes. Cells were washed in 1 ml of TBS-BSA and centrifuged as before and then suspended in 100 μl of TBS-BSA containing streptavidin conjugated to flourescein (FITC) for detection of the bound biotinylated compound. […] Thereafter, 400 μl of TBS-BSA were added and cells were centrifuged and washed again with 1 ml of TBS-BSA as before and then resuspended in 400 μl of TSS and taken for FACS analysis.
The FACS analysis was performed on Beckton-Dickinson cell sorter, using lysis II software. Excitation was at 488 nm and emission for FITC detection was a 535 nm.
A dot plot analysis was done for each treatment.

Assay [2] concerns BeWo cells. Here is the method: (§1) Anti β2GPI antibodies are present in sera of APS patients. […] For cell-ELISA tests, HUVEC cells or BeWo cells (both at 40,000/well), were plated on 96 well tissue culture plates (Nunc) in 200 ul of the culture medium, and allowed to grow for 18-22 hours. Following 2 washes with Hepes buffer (10 mM Hepes pH, 8, 140 mM NaCl) and 5 min incubation with the culture medium, the wells were incubated for 3 hr with 10% of normal plasma in PBS (as a source of β2GPI protein), supplemented with 1/500 of goat anti-human Apolipoprotein-H (β2GPI) (Affinity Biologicals, Pa.) Parallel control wells were incubated with 10% of normal plasma from Ilex. Serial dilutions of NST compounds were prepared in plasma/PBS. Washes and development were as described for anti CL ELISA.

The test system of assay [3] is HUVEC cells. How it is done:
as §1

Assay [4] concerns HeLa cells undergoing dopamine-induced apoptosis. Conditions: 750 nM. How it is done:
HeLa cells were plated on tissue culture plates at a density of 3×10^6 cells/10 cm dish, and grown in a DMEM medium containing 10% FCS, as described in A. The cells were then incubated at 37° C. overnight, and then the medium was replaced with a medium containing 2% FCS and 500 μM of dopamine. 18 hours later, the medium was aspirated and discarded, and 10 ml of Phosphate Buffered Saline pH 7.4 (PBS) were added to the culture dish. The cells which were detached from the culture dish into the PBS were collected. These cells represent advanced apoptotic cells. The remaining cells which were attached to the culture dish were trypsinized by the addition of 2 ml of trypsin for 2 minutes at 37° C., followed by the addition of 10 ml of a medium containing 10% of FCS. The cells were then washed with PBS containing 2% Bovine Serum Albumin (BSA), and resuspended in TBS containing 2% BSA (TBS-BSA). These cells were regarded as early apoptotic cells. […] Only non-treated cells that were attached to the culture dish were used as control cells for the FACS analysis.
A set of 3 different cell types was taken:
The incubation with the NST300 compounds or control compound was performed in a final volume of 100 μl TBS-BSA, 5 μg/ml of propidium iodide (PI) and 750 nM of the tested compound or the control compound.
PI is a red fluorescent dye that stains DNA. […] Only cells that are in advanced apoptotic stages, or cells that have already died by apoptosis or necrosis will be permeable to PI and will be stained with the dye. […] The cells were then washed in 500 μl of cold TBS-BSA and centrifugated as before. The cells were then suspended in 100 μl of TBS-BSA containing streptavidin conjugated to fluorescein (FITC). […] Thereafter, the cells were washed three times in TBS-BSA and were taken for FACS analysis.
The FACS analysis was performed on a Beckton-Dickinson cell sorter, using lysis II software. Excitation was at 488 nm and the emission or FITC detection was at 535 nm and for PI detection at 585 nm.

On to “Myristate-KKKKKRFSFKKSFKLSGFSFKKNKKK (SEQUENCE ID NO. 2)-(biotin) [NST302]”, for which the “cells FITC positive” value in assay [1] is reported as “About 70%”. Besides, the “concentration of maximum effect of displacement of anti β2GPI” value in assay [2] and in assay [3] was 50 µM throughout. Besides, the “blocking of binding to pro-coagulant surface of cells” value was “dramatic and significant ability to block binding” in assay [2] (FIG. 6e); “dramatic and significant ability to block binding” in assay [3] (FIG. 6d). In assay [4] (apoptotic cells), the “binding intensity (FITC mean value) compared with NST301” value was “higher binding intensity”. In addition, the “binding intensity: ratio of FITC mean value of apoptotic cells to that of control cells” value in assay [4] (early apoptotic cells, FIG. 3b) is reported as 9 fold.

(Values after US6602852B1, “Basic peptides and pharmaceutical compositions containing same” (NST NeuroSurvival Technologies, Ltd., priority 1998, dated 2003).)
